As a reminder, the IC50 is the midpoint of a concentration-inhibition curve.

In patent publication US20250346584A1, “NOVEL KAPPA OPIOID LIGANDS” (The Scripps Research Institute, priority 2012, published 2025) one finds IC50 data, which are given here for 35 compounds.

For this experiment, the target named is kappa opioid receptor (OPRK1) (Homo sapiens (Human), UniProt P41145). In words: OPRK1 antagonist assay (b-arrestin-2-TEV / b-lactamase reporter cell line, EC80 U-50488 challenge). Format: cell-based. Conditions: read-out: IC50 nM (% inhib if other than 50%); antagonist mode vs EC80 U-50488; NA = not active at concentrations up to 10 μM.
Sequence of kappa opioid receptor (OPRK1) (P41145 whole entry): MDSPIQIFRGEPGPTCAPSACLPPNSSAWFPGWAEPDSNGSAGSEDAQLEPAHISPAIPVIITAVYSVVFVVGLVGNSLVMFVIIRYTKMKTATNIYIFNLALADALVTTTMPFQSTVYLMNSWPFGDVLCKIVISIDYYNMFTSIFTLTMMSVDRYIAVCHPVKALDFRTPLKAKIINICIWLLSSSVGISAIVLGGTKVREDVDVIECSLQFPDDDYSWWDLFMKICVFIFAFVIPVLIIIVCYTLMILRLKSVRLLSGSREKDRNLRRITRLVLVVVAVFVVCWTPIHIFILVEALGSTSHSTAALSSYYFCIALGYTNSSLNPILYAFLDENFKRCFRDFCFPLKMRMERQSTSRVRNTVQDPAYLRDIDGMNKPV
Consider `COC1CN(c2nc3ccccc3cc2-c2nc(C)no2)CCC1NC1CCCCCC1` (centres unmarked) [compound 311], for which the IC50 turned out to be 1 nM.

Turning to `COC(=O)c1cc(Br)cnc1N1CCC(NC2CCCC(O)C2)CC1` (centres unmarked) [compound 10], the IC50 turned out to be 652 nM.

Regarding `CCc1ccc2nc(N3CCC(NC4CCCCC4)C(CO)C3)c(-c3nc(C)no3)cc2c1` (centres unmarked) [compound 269], the IC50 stood at 30 nM.

For the compound `CCOC(=O)c1cc(Br)cnc1N1CC[C@H](NC2CCCCC2)[C@@H](O)C1` [compound 540], the IC50 was found to be 16 nM.

In the case of `Cc1ccc2nc(N3CCC(NCC(C)O)CC3)c(-c3nc(C)no3)cc2c1` (centres unmarked) [compound 360], the IC50 amounted to 8 nM.

`COC1CN(c2nc3ccc(C)cc3cc2C(=O)N2CCCC2)CCC1NC1CCCCC1` (centres unmarked) [compound 323]: the IC50 was 1340 nM.

For `COC(=O)c1cnc(N2CCC(NC3CCCCC3)CC2)c([N+](=O)[O-])c1` [C36], the 50% inhibitory concentration (IC50) turned out to be 17000 nM.

`COC(=O)c1cc(Br)cnc1N1CC(O)C(NC2CCCCC2)C(O)C1` (centres unmarked) [compound 62]: the concentration for half-maximal inhibition (IC50) was found to be 2700 nM.

Consider `COC(=O)c1cc(-c2ccsc2)cnc1N1CCC(NC2CCCCC2)CC1` [compound 32], for which the IC50 was 5300 nM.

On to `CCC(CC)NC1CCN(c2nc3ccccc3cc2-c2nc(C)no2)CC1` [compound 237], for which the IC50 turned out to be 8 nM.

Take `CC(=O)c1cc(Br)cnc1N1CCC(NC2CCCCC2)C(CO)C1` (centres unmarked) [compound 144]: the IC50 came to 4800 nM.

Regarding `COC1CN(c2nc(C)c(C)cc2-c2nc(C)no2)CCC1NC1CCCCC1` (centres unmarked) [compound 178], the IC50 came to 483 nM.

Turning to `CO[C@@H]1CN(c2nc3ccc(C)cc3cc2-c2noc(C)n2)CC[C@@H]1NC1CCCCC1` [compound 382], the IC50 was determined as 83 nM.

For the compound `COC(=O)c1cc(I)cnc1N1CCC(NC2CCCC2)C(O)C1` (centres unmarked) [compound 46], the IC50 was found to be 25 nM.

Consider `CCOC(=O)c1cc(Br)cnc1N1CCC(NC2CCCCC2)C(CO)C1` (centres unmarked) [compound 69], for which the IC50 was 53 nM.

For the compound `CO[C@H]1CN(c2ncc(C)cc2C(=O)OC(C)C)CC[C@H]1NC1CCCCC1` [compound 356], the IC50 amounted to 12.5 nM.

Turning to `Cc1cc(-c2nc(C)no2)c(N2CCC(NC3CCCCC3)C(CO)C2)nn1` (centres unmarked) [compound 180], the IC50 came out at 7 nM.

For the compound `Cc1ccc2nc(N3CCC(NCC4CCCCC4O)CC3)c(-c3nc(C)no3)cc2c1` (centres unmarked) [compound 352], the IC50 was determined as 3.1 nM.

For the compound `COC(=O)c1cc(Br)cnc1N1CCC(NC2CCCCC2)C(C(=O)OC)C1` (centres unmarked) [compound 113], the 50% inhibitory concentration (IC50) came out at 2000 nM.

Turning to `Cc1noc(-c2cc3ccc(F)cc3nc2N2CCC(NC3CCOCC3)CC2)n1` [compound 528], the IC50 was determined as 23 nM.

For the compound `CCCC(C)NC1CCN(c2nc3ccc(C)cc3cc2-c2nc(C)no2)CC1` (centres unmarked) [compound 351], the half-maximal inhibitory concentration (IC50) amounted to 3 nM.

As to `Cc1noc(-c2cc(C)c(C)nc2N2CCC(NC3CCCC3)C(CO)C2)n1` (centres unmarked) [compound 223], the IC50 was determined as 13 nM.

On to `COC(=O)c1cccnc1N1CCC(NC2CCCCC2OC)C(O)C1` (centres unmarked) [compound 54], for which the IC50 was 559 nM.

`COC1CN(c2nc3ccc(C)cc3cc2-c2nc(C)no2)CCC1NC1CCCCCC1` (centres unmarked) [compound 312]: the half-maximal inhibitory concentration (IC50) is 0.7 nM.

`CO[C@H]1CN(c2nc3ccc(C)cc3cc2-c2ccc(C)o2)CC[C@H]1NC1CCCCC1` [compound 497]: the IC50 was found to be 48 nM.

With `COC(=O)c1cc(I)cnc1N1CCC(NC2CCCC2)C(CO)C1` (centres unmarked) [compound 88], the IC50 worked out at 52 nM.

For `COC(=O)c1cc(Br)cnc1N1CCC(NC2CCCCC2)C(F)C1` (centres unmarked) [compound 52], the IC50 came to 3400 nM.

`Cc1ccc2nc(N3CCC(NC4CCOCC4)CC3)c(-c3nc(C4CC4)no3)cc2c1` [compound 305]: the IC50 worked out at 17 nM.

In the case of `Cc1noc(-c2cc3ccc(F)c(C)c3nc2N2CCC(NC3CCCCC3)CC2)n1` [compound 491], the IC50 turned out to be 33 nM.

With `CCc1noc(-c2cc(Br)cnc2N2CCC(NC3CCCCC3)CC2)n1` [compound 107], the IC50 amounted to 11000 nM.

Take `COC1CN(c2nc3ccc(C)cc3cc2C(=O)OC(C)C)CCC1NC1CCCCC1` (centres unmarked) [compound 282]: the IC50 was determined as 38 nM.

`Cc1cnc(N2CCC(NC3CCCCC3)C(CO)C2)c(-c2ncco2)c1` (centres unmarked) [compound 217]: the IC50 was 361 nM.

Take `COC(=O)c1cc(C)nnc1N1CC[C@@H](NC2CCCCC2)[C@H](O)C1` [compound 166]: the IC50 amounted to 32 nM.

On to `CO[C@H]1CN(c2nc3ccc(C)cc3cc2C(=O)OC(C)C)CC[C@H]1NC1CCCCC1` [compound 343], for which the IC50 came to 10.6 nM.

On to `Cc1ccc2nc(N3CCC(NC4CCCCCCC4)CC3)c(-c3nc(C)no3)cc2c1` [compound 260], for which the IC50 was determined as 261 nM.
